Measurements published in PubChem BioAssay AID1902 (Broad Institute, 2009).
Activity calls are given as the source filed them.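 The calls were made as follows: active = EC50 no more than a set limit of log units above the highest dose; inactive = the rest.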

These compounds were tested against S. pyogenes SKKanGAS, kanamycin survival, BacTiterGlo, 6 h (assay: S. pyogenes SKKanGAS kanamycin growth inhibitors – SKKanGAS strain, luminescence, dose confirmation, streptokinase promoter inhibitor project, dose response (AID 1902);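 also: lower survival reflects blocked streptokinase promoter driving kanamycin resistance gene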).
Work on `CCOc1ccc(-n2c(C)cc(/C=C3/C(=N)N4C(=NC3=O)SN=C4S(C)(=O)=O)c2C)cc1` yielded an EC50 of 0.938 µM.
With `Cc1nc2ccccc2c(=O)n1/N=C/c1ccc2ccccc2c1O` the EC50 was > 15 µM (inactive).
`COc1ccc(-c2nn(-c3ccccc3)cc2/C=C2/SC(=S)N(CCC(=O)O)C2=O)cc1` was tested, and the EC50 was 1.83 µM.
`O=[N+]([O-])c1ccc(NCc2ccc(Cl)cc2)c2ccncc12` was tested, and the EC50 was 9.29 µM.
`N#C/C(=C(/O)Cc1cccc2ccccc12)c1nc2ccccc2s1` showed an EC50 of 1.36 µM.
`O=C(Nc1ccc([N+](=O)[O-])cc1)Nc1nc(-c2ccc(Cl)s2)cs1` showed an EC50 of 2.95 µM.
Work on `CC(=O)[C@]1(O)Cc2c(O)c3c(c(O)c2[C@@H](O[C@H]2C[C@H](N)[C@H](O)[C@H](C)O2)C1)C(=O)c1ccccc1C3=O` yielded an EC50 of 1.13 µM.
`Cc1nc(-n2[nH]c3c(c2=O)CCCC3)[nH]c(=O)c1Cc1ccccc1` gave an EC50 of 1.39 µM.
With `CC(=O)N1CCN(c2ccccc2NC(=O)c2cccs2)CC1` the EC50 was > 15 µM (inactive).
For `CCOc1ccc(N=Nc2ccc(O)c3ncccc23)cc1`, the EC50 was 0.186 µM.
`FC(F)(F)c1cccc(Nc2nc(N3CCCC3)nc(N3CCCC3)n2)c1` showed an EC50 of 2.23 µM.
With `NC(=O)c1ccc(NC(=O)COC(=O)c2c3c(nc4ccccc24)/C(=C\c2ccc4c(c2)OCO4)CCC3)cc1` the EC50 was 5.31 µM.
`CCN(CC)S(=O)(=O)c1cccc(C(=O)Nc2nc3cc4c(cc3s2)OCCO4)c1` showed an EC50 of 0.976 µM.
`Cc1nn(-c2ccccc2)c(C)c1/C=N/NC(=O)c1cc(C23CC4CC(CC(C4)C2)C3)[nH]n1` was tested, and the EC50 was 6.98 µM.
For `CCc1c(O)nc(SCC(=O)Nc2nc3ccccc3s2)n(C2CCCCC2)c1=O`, the EC50 was 8.89 µM.
With `Cn1cccc1C(=O)Nc1nc(-c2ccccn2)cs1` the EC50 was 12.4 µM.
Compound `CCc1cccc2c(C(=O)COC(=O)/C=C/c3ccc(O)c(OC)c3)c[nH]c12` has an EC50 of 7.63 µM.
`CCOc1ccc(Nc2nc(N3CCCCC3)nc(N3CCCCC3)n2)cc1` showed an EC50 of 0.65 µM.
In the case of `Cc1cccc(C(=O)Nc2scc(-c3ccc(Br)cc3)c2C(=O)O)c1`, the EC50 is reported as 1.89 µM.
`Cc1oc(-c2ccc(F)cc2)nc1CN(Cc1ccccn1)CC1CCCO1` (stereo not given) was tested, and the EC50 was 2 µM.
With `O=C(CSc1nnc(NC(=O)c2ccccc2)s1)NCC1CCCO1` (stereo not given) the EC50 was > 15 µM (inactive).
Compound `Cc1cccc(/C=N/NC(=O)Cc2ccc(Cl)cc2)c1O` has an EC50 of 3.53 µM.
Work on `COc1ccc2[nH]c3c(C)c4ccncc4c(C)c3c2c1` yielded an EC50 of 1.87 µM.
`O=C(O)CN1C(=O)/C(=C\c2ccccc2OCc2ccc(Cl)cc2Cl)SC1=S` showed an EC50 of 2.73 µM.
For `COc1ccc2cc(C(=O)NCc3ccccc3)c(=Nc3ccc(C(=O)O)cc3)oc2c1`, the EC50 was 3.83 µM.
Compound `CC(/C=C/c1ccc(N(C)C)cc1)=N/N=C1/NC(=O)CC(C(=O)Nc2ccc(Cl)cc2)S1` (stereo not given) has an EC50 of 2.38 µM.
`Cc1ccccc1OCC(=O)Nc1ccccc1N1CCC(C)CC1` gave an EC50 of 7.48 µM.
`O=C(N/N=C(\c1ccccc1)c1cccnc1)c1cccc(F)c1` showed an EC50 of 3.49 µM.
For `COc1ccc(/C=C/C(=O)NC(=S)NNC(=O)c2ccco2)cc1`, the EC50 was 1.67 µM.
Work on `Cc1ccc(C)c(NC(=O)CSc2nc3nc(-c4cccs4)cc(C(F)(F)F)c3c(=O)[nH]2)c1` yielded an EC50 of 3.18 µM.
`Oc1ccc(COCc2ccccc2)c2cccnc12` gave an EC50 of 1.85 µM.
`CCOC(=O)c1cccnc1SCC(=O)NC(C)CC` (stereo not given) was tested, and the EC50 was > 15 µM (inactive).
`C/C(=N/NS(=O)(=O)c1ccc(Cl)cc1)c1cccc(NC(=O)c2ccc(Cl)cc2Cl)c1` showed an EC50 of 4.79 µM.
`Cc1cccnc1Nc1nc(-c2ccccn2)cs1` showed an EC50 of 0.705 µM.
In the case of `COc1ccc2oc(C(=O)Nc3nc(-c4ccccn4)cs3)c(C)c2c1`, the EC50 is reported as 1.19 µM.
With `CC12CC3(C)CC(C)(C1)CC(C(=O)NC1=NCCS1)(C2)C3` the EC50 was 0.992 µM.
Compound `COc1cc(C(=O)NC(=S)Nc2ccc(NC(=O)c3ccco3)cc2)cc(OC)c1OC` has an EC50 of 8.97 µM.
`O=C1c2ccccc2C2=Nc3ccccc3SC(c3ccccc3F)C12` (stereo not given) was tested, and the EC50 was 3 µM.
`O=S(=O)(NCCSCc1c(Cl)cccc1Cl)c1ccc2c(c1)OCCO2` was tested, and the EC50 was 7.45 µM.
For `COCC1CCCCN1C(=O)c1ccc2oc(CCCc3ccccc3)nc2c1` (stereo not given), the EC50 was > 15 µM (inactive).
In the case of `Oc1cc(OCc2ccccc2)ccc1-c1[nH]ncc1-c1ccccc1`, the EC50 is reported as 3.06 µM.
`Cc1cc(NC(=O)CN2C(=O)c3ccccc3C2=O)no1` was tested, and the EC50 was > 15 µM (inactive).
For `Cc1cccc(-n2nc(C(=O)c3ccco3)cc(-c3nc4ccccc4[nH]3)c2=N)c1`, the EC50 was 3.36 µM.
`O=C(Nc1ccc(Cl)c(Cl)c1)N1CC=C(c2ccccc2)CC1` showed an EC50 of 8.08 µM.
With `NC(=S)N/N=C\c1c(OCc2ccccc2Cl)ccc2ccccc12` the EC50 was 2.53 µM.
`Oc1ccccc1N=Nc1ccccc1O` showed an EC50 of 0.961 µM.
For `COc1ccc(NC(=O)c2nc[nH]c2C(=O)N[C@@H](CC(C)C)C(=O)OC(C)(C)C)cc1`, the EC50 was 3.28 µM.
In the case of `N=C1SC(c2ccccc2)C(=O)N1c1ncc(Cc2ccccc2Cl)s1` (stereo not given), the EC50 is reported as 0.177 µM.
In the case of `O=C(COc1ccc(Cl)cc1Cl)Nc1ccc(C(=O)Nc2ccccc2C(=O)O)cc1`, the EC50 is reported as 2.3 µM.
Work on `COc1ccc(C(=O)NC(=S)NNC(=O)[C@H]2C[C@@H]2c2ccccc2)cc1OC` yielded an EC50 of 0.914 µM.
`COc1ccc(Cc2[nH]n3c(=O)cc(C(C)C)nc3c2-c2ccccc2)cc1` was tested, and the EC50 was 2.33 µM.
For `COc1cccc(-c2cc(C(F)(F)F)nc(N3CCCCC3)n2)c1`, the EC50 was 4.86 µM.
`Cc1nn(-c2nc3ccccc3[nH]2)c(N)c1-c1ccc(Cl)cc1` was tested, and the EC50 was 1.53 µM.
Compound `CCC1CCCCN1S(=O)(=O)c1ccc(C(=O)Nc2nnc(C3CC3)o2)cc1` (stereo not given) has an EC50 of 2.23 µM.
`CCn1c(=O)c(C(=O)NNC(=O)c2ccc(Cl)cc2Cl)c(O)c2ccccc21` showed an EC50 of 1.99 µM.
